The source made the active and inactive calls.

The term EC50 denotes the concentration that produces a half-maximal response. In general, AC50 refers to the midpoint of the concentration-response curve, whichever way the signal moves.

In one experiment the target is T1, Heat shock factor protein 1 (Mus musculus, UniProt P38532).
T1 sequence (P38532 whole entry): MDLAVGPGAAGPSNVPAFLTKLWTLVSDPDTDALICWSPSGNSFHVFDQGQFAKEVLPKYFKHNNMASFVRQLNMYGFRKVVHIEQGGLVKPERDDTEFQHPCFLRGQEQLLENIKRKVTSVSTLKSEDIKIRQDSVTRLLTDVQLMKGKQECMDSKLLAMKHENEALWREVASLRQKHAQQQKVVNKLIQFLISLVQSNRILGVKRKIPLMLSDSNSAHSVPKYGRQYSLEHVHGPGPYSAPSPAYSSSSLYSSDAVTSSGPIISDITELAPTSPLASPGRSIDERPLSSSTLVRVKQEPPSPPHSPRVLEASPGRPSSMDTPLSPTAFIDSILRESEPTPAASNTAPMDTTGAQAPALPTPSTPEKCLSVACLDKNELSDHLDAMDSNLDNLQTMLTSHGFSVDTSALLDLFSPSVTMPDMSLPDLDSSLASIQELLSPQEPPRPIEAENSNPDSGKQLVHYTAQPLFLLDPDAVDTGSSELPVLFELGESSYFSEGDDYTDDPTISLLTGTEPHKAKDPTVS
Put plainly: decrease of HSF1-responsive luciferase luminescence – cell-based, NIH3T3, dose retest, confirmation (AID 2382).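 Also: NIH3T3 fibroblasts with HSF1-driven luciferase reporter stressed by proteasome inhibitor MG132; luminescence from HSF1-driven luciferase expression after 8 hours of MG132 stress.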 Type of experiment: functional.
Settings: not given
`CC1Cc2ccccc2N1C(=O)C12CCC(C)(C(=O)C1)C2(C)C` (stereo unspecified): the EC50 is reported as > 195 µM (not active). Same read-out and setting: under `CC(=O)Nc1ccc(Cc2ccncc2)cc1` stands > 195 µM (not active); under `O=C(Nc1ccc(N2CCOCC2)cc1)c1cc(-c2ccncc2)nc2ccccc12`, > 195 µM (not active); under `COc1ccc(NC(=O)c2cccnc2)cc1OCC(C)C`, > 195 µM (not active).

On to `CC(C)C[C@@H](CC#N)N1CCN(Cc2ccccc2)CCC1=O`, for which the EC50 was > 195 µM (not active). Same read-out and setting: under `O=C(Nc1ccc(N2C(=O)C3C4C=CC(C4)C3C2=O)cc1)Nc1nncs1` (stereo unspecified) stands > 195 µM (not active); under `COC(=O)c1ccc(CNC(=O)C(NC(=O)c2ccco2)C(C)C)cc1` (stereo unspecified), > 195 µM (not active); under `Cn1c(=O)c2cn(Cc3ccc(Cl)cc3)cc2n(C)c1=O`, > 195 µM (not active). Still for that read-out and setting: as for `Cc1ccc(S(=O)(=O)N2CCC(C(=O)NNC(=O)c3ccncc3)CC2)cc1`, the figure is > 195 µM (not active); as for `COC(=O)c1ccc(CN2CCN(CCc3ccccc3)C(CCO)C2)cc1` (stereo unspecified), > 195 µM (not active); as for `CCOC(=O)C1CCN(C(=O)CC(C)c2ccccc2)CC1` (stereo unspecified), 13.5 µM (active).

On to `Fc1ccc(NC(S)=NCc2ccccc2)cc1`, for which the EC50 is recorded as > 195 µM (not active).

For the compound `OC1(c2ccc(Br)cc2)CCN(Cc2cccc(Br)c2)CC1`, the EC50 is > 195 µM (not active). The same measure, in the same setting: under `CCOc1ccc(NC(=O)CCCNC(=O)Cn2cnc3sc(C)c(C)c3c2=O)cc1` stands > 195 µM (not active); under `COCCn1c(SCC(=O)c2cc(C)n(C)c2C)nc2ccccc2c1=O`, > 195 µM (not active).

For the next experiment, the target named is Cytochrome P450 2C19 (Homo sapiens, UniProt P33261). Put plainly: Cytochrome panel assay with activity outcomes. Panel member name: p450-cyp2c19 Compounds with AC50 equal or less than 10 uM are considered active. It counts as functional. To be noted: read-out: AC50.
Cytochrome P450 2C19, sequence (P33261 whole entry): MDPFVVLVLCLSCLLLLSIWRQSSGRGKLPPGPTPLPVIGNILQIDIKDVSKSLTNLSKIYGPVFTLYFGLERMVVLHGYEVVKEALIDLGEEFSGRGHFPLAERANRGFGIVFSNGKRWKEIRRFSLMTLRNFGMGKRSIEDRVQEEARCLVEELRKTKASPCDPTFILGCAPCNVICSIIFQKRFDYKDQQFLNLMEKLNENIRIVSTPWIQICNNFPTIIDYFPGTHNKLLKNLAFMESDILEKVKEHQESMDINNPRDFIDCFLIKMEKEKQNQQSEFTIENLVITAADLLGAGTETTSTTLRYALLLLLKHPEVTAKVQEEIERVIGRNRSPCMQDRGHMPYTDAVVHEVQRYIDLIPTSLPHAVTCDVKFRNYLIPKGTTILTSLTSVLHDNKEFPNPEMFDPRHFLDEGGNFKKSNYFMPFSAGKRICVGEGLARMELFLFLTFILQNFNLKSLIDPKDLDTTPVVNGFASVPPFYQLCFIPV
Regarding `O=C(OCC1CC(c2ccccc2)=NO1)c1ccc(Cl)cc1` (stereo unspecified), the AC50 is 7.08 µM (inconclusive). For `COCCn1c(C(=O)N2CCCC2)cc2c1C[C@H]1CN(C(=O)c3ccccc3)[C@@](Cc3ccc(F)cc3)(C(=O)OC)[C@@H]21`, the AC50 is 25.1 µM (inconclusive). As to `Cc1cc(C(=O)NNC(=S)NC(C)c2ccccc2)c2ccccc2n1` (stereo unspecified), the AC50 was 22.4 µM (inconclusive).

Consider `Cc1cc[n+](CC(=O)Nc2cc(C(F)(F)F)ccc2Cl)cc1`, for which the half-maximal activity concentration (AC50) is 3.98 µM (inconclusive).

A further experiment concerns INS1. Put plainly: INS-1E survival protection against cytokine death – cell-based, luminescence, retest, dose response (AID 449756).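 Also: cell death triggered by IL-1 beta plus TNF-alpha plus IFN-gamma mixture; protective hits raise ATP signal compared with cytokine alone wells.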 To be noted: Rattus norvegicus. Type of experiment: functional.
Regarding `CCCC(=O)N(CCN(C(=O)CCC)c1ccccc1)c1ccccc1`, the AC50 was 183 µM (active). Same read-out and setting: as for `CCOc1ccc(N(C)S(=O)(=O)c2ccc(C)c(C(=O)OCC(=O)c3c[nH]c4ccccc34)c2)cc1`, the figure is 11.3 µM (active); as for `CCSC1=NCCN1C(=O)C(C)(C)Oc1ccc(Cl)cc1`, > 260 µM (inactive). As to `C=CCN(CC=C)Cc1c[nH]c2ccccc12`, the AC50 is > 260 µM (inactive).

For the compound `Cc1nc2ccccc2c2oc(C(=O)Nc3ccc(C(C)C)cc3)cc12`, the AC50 is 18.8 µM (active). The same measure, in the same setting: under `O=S(=O)(c1ccc(F)c(F)c1F)N1CCN(c2ncnc3sccc23)CC1` stands 4.95 µM (active); under `CC(C)(C)c1cnnn1-c1ccc(/C=N/Nc2ccc([N+](=O)[O-])cc2)cc1`, 4.33 µM (active).

System in another experiment: not listed separately
In words: reduction of Shn3 3'UTR-driven luciferase in osteoblasts – cell-based, Clone20 osteoblasts, firefly luciferase, cherry-picked, dose response (AID 624132).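 Also: firefly luciferase luminescence from reporter carrying the Shn3 3'UTR in osteoblasts.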 Type of experiment: functional.
Settings: not given
As to `CCCC(c1nnnn1Cc1ccc(OC)cc1)N1CCN(c2ccccc2)CC1` (stereo unspecified), the AC50 is 31.9 µM (active).

In a further experiment the target is T2, Cytochrome P450 1A2 (Homo sapiens, UniProt P05177).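 Also: PubChem cytochrome P450 panel assay, CYP1A2 panel member.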
T2 sequence (P05177 whole entry): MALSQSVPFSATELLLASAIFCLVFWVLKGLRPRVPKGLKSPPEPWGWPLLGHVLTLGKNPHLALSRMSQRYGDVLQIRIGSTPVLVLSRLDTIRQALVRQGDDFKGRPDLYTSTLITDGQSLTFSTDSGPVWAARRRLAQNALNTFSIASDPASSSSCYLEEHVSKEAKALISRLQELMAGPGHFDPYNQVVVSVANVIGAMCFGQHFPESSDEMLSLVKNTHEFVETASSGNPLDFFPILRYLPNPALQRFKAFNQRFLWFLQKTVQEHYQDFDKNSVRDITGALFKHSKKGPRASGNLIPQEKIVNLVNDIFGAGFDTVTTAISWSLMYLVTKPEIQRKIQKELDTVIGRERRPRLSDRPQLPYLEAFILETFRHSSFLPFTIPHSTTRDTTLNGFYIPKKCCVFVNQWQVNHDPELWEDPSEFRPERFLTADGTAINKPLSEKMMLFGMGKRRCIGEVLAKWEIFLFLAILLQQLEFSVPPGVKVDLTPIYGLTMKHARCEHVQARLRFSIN
Settings: not given
Take `O=C(OCC1CC(c2ccccc2)=NO1)c1ccc(Cl)cc1` (stereo unspecified): the AC50 is 2.82 µM (inconclusive). As for `COCCn1c(C(=O)N2CCCC2)cc2c1C[C@H]1CN(C(=O)c3ccccc3)[C@@](Cc3ccc(F)cc3)(C(=O)OC)[C@@H]21`, the AC50 was 31.6 µM (inconclusive). On the same count and under the same terms, under `Cc1cc(C(=O)NNC(=S)NC(C)c2ccccc2)c2ccccc2n1` (stereo unspecified) stands 31.6 µM (inconclusive); under `Cc1cc[n+](CC(=O)Nc2cc(C(F)(F)F)ccc2Cl)cc1`, 15.8 µM (inconclusive).

The values above are taken from ChEMBL document CHEMBL1201862, “PubChem BioAssay data set” (2004).
